US11773085B2 (Foghorn Therapeutics Inc., priority 2018, dated 2023)

What follows are molecules tested against BRD9 bromodomain (Homo sapiens (Human), UniProt Q9H8M2) (assay: BRD9 bromodomain TR-FRET competition binding assay). Conditions: 3 nM Flag-BRD9, 3.75 nM biotinylated ligand, 90 minutes at room temperature.
Experimental: Cleaved His tag was removed by purification.
A mixture of biotinylated-ligand and SureLight™ Allophycocyanin-Streptavidin (APC-SA, PerkinElmer AD0201) in 50 mM HEPES (pH 7.4), 50 mM NaCl, 1 mM TCEP (pH 7), 0.01% (v/v) Tween-20, 0.01% (w/v) bovine serum albumin was added to a white 384-well PerkinElmer Proxiplate Plus plate. DMSO or 3-fold serially diluted compounds were then added to the Proxiplate followed by addition of Flag-BRD9. After a 10 minute incubation at room temperature, Eu-W1024 anti-FLAG (PerkinElmer, AD0273) was added.

`CNC(=O)c1ccc2c(-c3cc(OC)c(CN(C)C)c(OC)c3)cn(C)c(=O)c2c1` [Compound B59, 4-[4-[(dimethylamino)methyl]-3,5-dimethoxyphenyl]-N,2-dimethyl-1-oxoisoquinoline-7-carboxamide] and `CNC(=O)c1ccc2c(=O)n(C)cc(-c3cc(OC)c(CN(C)C)c(OC)c3)c2c1` [Compound B63, 4-(4-((dimethylamino)methyl)-3,5-dimethoxyphenyl)-N,2-dimethyl-1-oxo-12-dihydroisoquinoline-6-carboxamide] fall in the same range of IC50: 10 to 100 nM for the first, 10 to 100 nM for the second.

`COc1cc(-c2cn(C)c(=O)c3cc(-c4nc5ccncc5[nH]4)ccc23)cc(OC)c1CN(C)C` [Compound B64, 4-[4-[(dimethylamino)methyl]-3,5-dimethoxyphenyl]-7-[1H-imidazo[4,5-c]pyridin-2-yl]-2-methylisoquinolin-1-one] and `COc1cc(-c2cn(C)c(=O)c3ccc(-c4nc5cnccc5[nH]4)cc23)cc(OC)c1CN(C)C` [Compound B65, 4-(4-((dimethylamino)methyl)-3,5-dimethoxyphenyl)-6-(1H-imidazo[4,5-c]pyridin-2-yl)-2-methylisoquinolin-1(2H)-one] fall in the same range of IC50: 10 to 100 nM for the first, 10 to 100 nM for the second.

`CN(Cc1ccccc1)C(=O)c1cn(C)c(=O)c2[nH]ncc12` [Compound B7] and `Cn1cc(C(=O)Nc2ccccc2)c2cn[nH]c2c1=O` [Compound B8] cannot be ordered by IC50: > 1000 nM for the first, > 1000 nM for the second.

`COc1cc(-c2cn(C)c(=O)c3cnccc23)cc(OC)c1CN1CC(CC(=O)O)C1` [Compound B41, 2-(1-[[2,6-dimethoxy-4-(2-methyl-1-oxo-1,2-dihydro-2,7-naphthyridin-4-yl)phenyl]methyl]azetidin-3-yl)acetic acid formic acid] and `COc1cc(-c2cn(C)c(=O)c3cnccc23)cc(OC)c1CN1CC(C(=O)O)C1` [Compound B21, 1-[[2,6-dimethoxy-4-(2-methyl-1-oxo-1,2-dihydro-2,7-naphthyridin-4-yl)phenyl]methyl]azetidine-3-carboxylic acid] fall in the same range of IC50: 10 to 100 nM for the first, 10 to 100 nM for the second.

First: COc1c(CN(C)C)ccc(-c2cn(C)c(=O)c3cnccc23)c1F [Compound B66, 4-(4-((dimethylamino)methyl)-2-fluoro-3-methoxyphenyl)-2-methyl-2,7-naphthyridin-1(2H)-one]
Second: CSc1cc(-c2cn(C)c(=O)c3cnccc23)ccc1CN(C)C [Compound B36, 4-[4-[(dimethylamino)methyl]-3-(methylsulfanyl)phenyl]-2-methyl-1,2-dihydro-2,7-naphthyridin-1-one]
The IC50 of the first is higher: 100 to 1000 nM for the first, 10 to 100 nM for the second. The second is the more potent here.

`CCCn1cc(C(=O)NCc2ccccc2)c2cn[nH]c2c1=O` [Compound B10] and `CC(C)n1cc(C(=O)NCc2ccccc2)c2cn[nH]c2c1=O` [Compound B12] cannot be ordered by IC50: > 1000 nM for the first, > 1000 nM for the second.

First: COc1cc(-c2nn(C)c(=O)c3cnccc23)cc(OC)c1CN(C)C [Compound B62, 1-(4-((dimethylamino)methyl)-3,5-dimethoxyphenyl)-3-methylpyrido[3,4-d]pyridazin-4(3H)-one 2,2,2-trifluoroacetate]
Second: COc1cc(-c2cn(C)c(=O)c3cnccc23)cc(OC)c1CN(C)S(C)(=O)=O [Compound B38, N-[[2,6-dimethoxy-4-(2-methyl-1-oxo-2,7-naphthyridin-4-yl)phenyl]methyl]-N-methylmethanesulfonamide]
The IC50 of the first is higher: 10 to 100 nM for the first, < 10 nM for the second.

Compared with `COc1cc(-c2cn(C)c(=O)c3cnncc23)cc(OC)c1CN(C)C` [Compound B52, 8-[4-[(dimethylamino)methyl]-3,5-dimethoxyphenyl]-6-methyl-5H,6H-pyrido[3,4-d]pyridazin-5-one], `COc1cc(-c2cn(C)c(=O)c3[nH]ncc23)cc(OC)c1CN(C)C` [Compound B43, 4-(4-((dimethyllamino)methyl)-3,5-dimethoxyphenyl)-6-methyl-1,6-dihydro-7H-pyrazolo[3,4-c]pyridin-7-one] is lower in IC50: 10 to 100 nM for the first, < 10 nM for the second. The second is the more potent here.

Compared with `COc1cc(-c2cc(NC(=O)N(C)C)c3nncn3c2)cc(OC)c1CN(C)C` [Compound B58, 1-(6-[4-[(dimethylamino)methyl]-3,5-dimethoxyphenyl]-[1,2,4]triazolo[4,3-a]pyridin-8-yl)-3,3-dimethylurea], `COc1cc(-c2cc(NC(C)=O)c3nnc(C)n3c2)cc(OC)c1CN(C)C` [Compound B60, N-(6-[4-[(dimethylamino)methyl]-3,5-dimethoxyphenyl]-3-methyl-[1,2,4]triazolo[4,3-a]pyridin-8-yl)acetamide] is lower in IC50: > 1000 nM for the first, 10 to 100 nM for the second. The second is the more potent here.

`CCN(C)C(=O)c1cn(C)c(=O)c2[nH]ncc12` [Compound B11] and `Cn1cc(C(=O)NCc2ccccc2)c2ccncc2c1=O` [Compound B3] cannot be ordered by IC50: > 1000 nM for the first, > 1000 nM for the second.

`CC(=O)c1cc(-c2cccc3nccn23)c2cc(N3CCNCC3)ccn12` [Compound B19, 1-(1-[imidazo[1,2-a]pyridin-5-yl]-7-(piperazin-1-yl)indolizin-3-yl)ethan-1-one] and `CC(=O)c1cc(-c2cccc3nccn23)c2cc(N3CCN(C)CC3)ccn12` [Compound B17, 1-(1-[imidazo[1,2-a]pyridin-5-yl]-7-(4-methylpiperazin-1-yl)indolizin-3-yl)ethan-1-one] fall in the same range of IC50: 100 to 1000 nM for the first, 100 to 1000 nM for the second.

`CCC(=O)Nc1cc(-c2cc(OC)c(CN(C)C)c(OC)c2)cn(C)c1=O` [Compound B30, N-(5-[4-[(dimethylamino)methyl]-3,5-dimethoxyphenyl]-1-methyl-2-oxo-1,2-dihydropyridin-3-yl)propanamide] and `COc1cc(-c2cc(NC(C)=O)c(=O)n(C)c2)cc(OC)c1CN(C)C` [Compound B29, N-(5-[4-[(dimethylamino)methyl]-3,5-dimethoxyphenyl]-1-methyl-2-oxo-1,2-dihydropyridin-3-yl)acetamide] fall in the same range of IC50: 100 to 1000 nM for the first, 100 to 1000 nM for the second.

`CNCc1c(OC)cc(-c2cn(C)c(=O)c3cnccc23)cc1OC` [Compound B53, 4-[3,5-dimethoxy-4-[(methylamino)methyl]phenyl]-2-methyl-1,2-dihydro-2,7-naphthyridin-1-one] and `CNCc1c(OC)cc(-c2cn(C3CC3)c(=O)c3cnccc23)cc1OC` [Compound B18, 2-cyclopropyl-4-[3,5-dimethoxy-4-[(methylamino)methyl]phenyl]-2,7-naphthyridin-1-one] fall in the same range of IC50: 10 to 100 nM for the first, 10 to 100 nM for the second.

First: CCOC(=O)Nc1cc(-c2cc(OC)c(CN(C)C)c(OC)c2)cn(C)c1=O [Compound B32]
Second: CCOC(=O)Nc1c(C)c(-c2cc(OC)c(CN(C)C)c(OC)c2)cn(C)c1=O [Compound B42, ethyl N-(5-[4-[(dimethylamino)methyl]-3,5-dimethoxyphenyl]-1,4-dimethyl-2-oxo-1,2-dihydropyridin-3-yl)carbamate]
The IC50 of the first is lower: 10 to 100 nM for the first, > 1000 nM for the second. The first is the more potent here.

First: CNCc1ccc(-c2cn(C)c(=O)c3[nH]ccc23)cc1 [Compound B14]
Second: COc1cc(-c2cn(C)c(=O)c3cnccc23)cc(SC)c1CN(C)C [Compound B54, 4-[4-[(dimethylamino)methyl]-3-methoxy-5-(methylsulfanyl)phenyl]-2-methyl-1,2-dihydro-2,7-naphthyridin-1-one]
The IC50 of the first is higher: 10 to 100 nM for the first, < 10 nM for the second. The second is the more potent here.

First: COc1cc(C#N)ccc1S(=O)(=O)Nc1ccc2c(c1)cc(C)c(=O)n2C [Compound B26]
Second: COc1cc(-c2cn(C)c(=O)c3cnccc23)cc(OC)c1CN(C)S(=O)(=O)C(C)C [Compound B49, N-[[2,6-dimethoxy-4-(2-methyl-1-oxo-2,7-naphthyridin-4-yl)phenyl]methyl]-N-methyl propane-2-sulfonamide]
The IC50 of the first is higher: > 1000 nM for the first, 10 to 100 nM for the second.

`COc1cc(-c2cc(N)c(=O)n(C)c2)cc(OC)c1CN(C)C` [Compound B28, 3-amino-5-(4-((dimethylamino)methyl)-3,5-dimethoxyphenyl)-1-methylpyridin-2(1H)-one] and `COc1cc(-c2cn(C)c(=O)c3[nH]cnc23)cc(OC)c1CN(C)C` [Compound B47, 7-[4-[(dimethylamino)methyl]-3,5-dimethoxyphenyl]-5-methyl-3H-imidazo[4,5-c]pyridin-4-one formic acid] fall in the same range of IC50: 10 to 100 nM for the first, 10 to 100 nM for the second.

First: COc1cc(-c2cn(C)c(=O)c3cnccc23)cc(OC)c1CN1CC[C@H]1C(=O)O [Compound B45, (2S)-1-[[2,6-dimethoxy-4-(2-methyl-1-oxo-2,7-naphthyridin-4-yl)phenyl]methyl] azetidine-2-carboxylic acid]
Second: COc1cc(-c2cn(C)c(=O)c3cnccc23)cc(OC)c1CN1CC(N)C1 [Compound B20, 4-[4-[(3-aminoazetidin-1-yl)methyl]-3,5-dimethoxyphenyl]-2-methyl-1,2-dihydro-2,7-naphthyridin-1-one]
The IC50 of the first is higher: 10 to 100 nM for the first, < 10 nM for the second. The second is the more potent here.

Compared with `COc1cc(-c2cn(C)c(=O)c3cnccc23)cc(OC)c1CN(C)S(=O)(=O)C1CC1` [Compound B39, N-[[2,6-dimethoxy-4-(2-methy-1-oxo-2,7-naphthyridin-4-yl)phenyl]methyl]-N-methyl cyclopropanesulfonamide], `COc1cc(-c2cn(C)c(=O)c3cnccc23)cc(F)c1CN(C)C` [Compound B67, 4-(4-((dimethylamino)methyl)-3-fluoro-5-methoxyphenyl)-2-methyl-2,7-naphthyridin-1(2H)-one] is higher in IC50: < 10 nM for the first, 10 to 100 nM for the second. The first is the more potent here.

First: COc1cc(-c2cn(C)c(=O)c3cnccc23)cc(OC)c1CN1CC(C(=O)NCCCCCCCCNc2ccccc2)C1 [Compound B44, 1-[[2,6-dimethoxy-4-(2-methyl-1-oxo-1,2-dihydro-2,7-naphthyridin-4-yl)phenyl]methyl]-N-[8-(phenylamino)octyl]azetidine-3-carboxamide]
Second: COc1cc(-c2cn(C)c(=O)c3nccnc23)cc(OC)c1CN(C)C [Compound B33, 8-[4-[(dimethylamino)methyl]-3,5-dimethoxyphenyl]-6-methylpyrido[3,4-b]pyrazin-5-one]
The IC50 of the first is lower: < 10 nM for the first, 100 to 1000 nM for the second.

With `COc1cc(/C=C/c2c(C)noc2C)cc(OC)c1CN(C)C` [Compound B68] the IC50 was > 1000 nM.
